For the assay, the system named is green peach aphid (Myzus persicae). Briefly: Biological activity of mixtures: green peach aphid systemic test with Colby analysis. It is filed as in vivo. As to conditions: 3 days. From the text: Synergism can be described as an interaction where the combined effect of two or more compounds is greater than the sum of the individual effects of each of the compounds. The presence of a synergistic effect in terms of percent control, between two mixing partners (X and Y) can be calculated using the Colby equation (Colby, S. R., 1967, Calculating Synergistic and Antagonistic Responses in Herbicide Combinations, Weeds, 15, 20-22):
When the observed combined control effect is greater than the expected combined control effect (E), then the combined effect is synergistic.
The analysis of synergism or antagonism between the mixtures or compositions was determined using Colby's equation.
For evaluating control of green peach aphid (Myzus persicae) through systemic means the test unit consisted of 96-well-microtiter plates containing liquid artificial diet under an artificial membrane.
The compounds or mixtures were formulated using a solution containing 75% water and 25% DMSO. Different concentrations of formulated compounds or mixtures were pipetted into the aphid diet, using a custom built pipetter, at two replications. […]
After application, 5-8 adult aphids were placed on the artificial membrane inside the microtiter plate wells. […] Aphid mortality and fecundity was then visually assessed.

Take `CC1(C)C(C=C(Cl)Cl)C1C(=O)OC(C#N)c1cccc(Oc2ccccc2)c1` (centres unmarked) [Alphacypermethrin]: the “Average Control %” value (10 ppm) worked out at 0%.
As for `CCC(=O)N1CC2(C1)OCc1cc(C3=NOC(c4cc(Cl)c(F)c(Cl)c4)(C(F)(F)F)C3)ccc12` (centres unmarked) [Compound I-1], the “Average Control %” value (0.4 ppm) was found to be 0%.
